The target of one test is T1, TAF1-2 (Homo sapiens, UniProt P21675).
T1 construct: a tandem bromodomain (BD1 and BD2)
T1 sequence (P21675 1519-1628 limits assumed): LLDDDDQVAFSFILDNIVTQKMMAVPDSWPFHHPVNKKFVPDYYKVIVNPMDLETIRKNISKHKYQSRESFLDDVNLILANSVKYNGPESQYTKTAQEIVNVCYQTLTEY
Briefly: DSF for TAFi with TAF1-2. The test is classed as binding. The following applies: protein TAF1-2, DMSO = 0.

For a further test, the target named is T2, purified FLAG-ATR (Homo sapiens, UniProt Q13535).
T2 construct: FLAG
Briefly: ELISA-based kinase activity: phosphorylation of p53 S15 by purified FLAG-ATR in vitro. As to conditions: FIG. 3. Type of test: biochemical. The source says: ELISA-based kinase activity was used to test the ability of compounds to inhibit phosphorylation of p53 S15 by purified FLAG-ATR in vitro.
In general terms: In an ELISA, binding on a coated surface is turned into a signal by an enzyme label.

Test [1] concerns HCT116 cells with and without p53. Briefly: Western blot of marker expression (p21) in HCT116 cells with and without p53. Type of test: cell-based. As to conditions: HCT116 cells with and without p53, treated 30 hrs, FIG. 4. The procedure: HCT116 cells with and without p53 were treated with compounds for 30 hrs. Expression levels of indicated markers were determined by western blot.

Entries after “also recorded” stand apart in the source; their conditions may differ.

T2 sequence (Q13535 whole entry): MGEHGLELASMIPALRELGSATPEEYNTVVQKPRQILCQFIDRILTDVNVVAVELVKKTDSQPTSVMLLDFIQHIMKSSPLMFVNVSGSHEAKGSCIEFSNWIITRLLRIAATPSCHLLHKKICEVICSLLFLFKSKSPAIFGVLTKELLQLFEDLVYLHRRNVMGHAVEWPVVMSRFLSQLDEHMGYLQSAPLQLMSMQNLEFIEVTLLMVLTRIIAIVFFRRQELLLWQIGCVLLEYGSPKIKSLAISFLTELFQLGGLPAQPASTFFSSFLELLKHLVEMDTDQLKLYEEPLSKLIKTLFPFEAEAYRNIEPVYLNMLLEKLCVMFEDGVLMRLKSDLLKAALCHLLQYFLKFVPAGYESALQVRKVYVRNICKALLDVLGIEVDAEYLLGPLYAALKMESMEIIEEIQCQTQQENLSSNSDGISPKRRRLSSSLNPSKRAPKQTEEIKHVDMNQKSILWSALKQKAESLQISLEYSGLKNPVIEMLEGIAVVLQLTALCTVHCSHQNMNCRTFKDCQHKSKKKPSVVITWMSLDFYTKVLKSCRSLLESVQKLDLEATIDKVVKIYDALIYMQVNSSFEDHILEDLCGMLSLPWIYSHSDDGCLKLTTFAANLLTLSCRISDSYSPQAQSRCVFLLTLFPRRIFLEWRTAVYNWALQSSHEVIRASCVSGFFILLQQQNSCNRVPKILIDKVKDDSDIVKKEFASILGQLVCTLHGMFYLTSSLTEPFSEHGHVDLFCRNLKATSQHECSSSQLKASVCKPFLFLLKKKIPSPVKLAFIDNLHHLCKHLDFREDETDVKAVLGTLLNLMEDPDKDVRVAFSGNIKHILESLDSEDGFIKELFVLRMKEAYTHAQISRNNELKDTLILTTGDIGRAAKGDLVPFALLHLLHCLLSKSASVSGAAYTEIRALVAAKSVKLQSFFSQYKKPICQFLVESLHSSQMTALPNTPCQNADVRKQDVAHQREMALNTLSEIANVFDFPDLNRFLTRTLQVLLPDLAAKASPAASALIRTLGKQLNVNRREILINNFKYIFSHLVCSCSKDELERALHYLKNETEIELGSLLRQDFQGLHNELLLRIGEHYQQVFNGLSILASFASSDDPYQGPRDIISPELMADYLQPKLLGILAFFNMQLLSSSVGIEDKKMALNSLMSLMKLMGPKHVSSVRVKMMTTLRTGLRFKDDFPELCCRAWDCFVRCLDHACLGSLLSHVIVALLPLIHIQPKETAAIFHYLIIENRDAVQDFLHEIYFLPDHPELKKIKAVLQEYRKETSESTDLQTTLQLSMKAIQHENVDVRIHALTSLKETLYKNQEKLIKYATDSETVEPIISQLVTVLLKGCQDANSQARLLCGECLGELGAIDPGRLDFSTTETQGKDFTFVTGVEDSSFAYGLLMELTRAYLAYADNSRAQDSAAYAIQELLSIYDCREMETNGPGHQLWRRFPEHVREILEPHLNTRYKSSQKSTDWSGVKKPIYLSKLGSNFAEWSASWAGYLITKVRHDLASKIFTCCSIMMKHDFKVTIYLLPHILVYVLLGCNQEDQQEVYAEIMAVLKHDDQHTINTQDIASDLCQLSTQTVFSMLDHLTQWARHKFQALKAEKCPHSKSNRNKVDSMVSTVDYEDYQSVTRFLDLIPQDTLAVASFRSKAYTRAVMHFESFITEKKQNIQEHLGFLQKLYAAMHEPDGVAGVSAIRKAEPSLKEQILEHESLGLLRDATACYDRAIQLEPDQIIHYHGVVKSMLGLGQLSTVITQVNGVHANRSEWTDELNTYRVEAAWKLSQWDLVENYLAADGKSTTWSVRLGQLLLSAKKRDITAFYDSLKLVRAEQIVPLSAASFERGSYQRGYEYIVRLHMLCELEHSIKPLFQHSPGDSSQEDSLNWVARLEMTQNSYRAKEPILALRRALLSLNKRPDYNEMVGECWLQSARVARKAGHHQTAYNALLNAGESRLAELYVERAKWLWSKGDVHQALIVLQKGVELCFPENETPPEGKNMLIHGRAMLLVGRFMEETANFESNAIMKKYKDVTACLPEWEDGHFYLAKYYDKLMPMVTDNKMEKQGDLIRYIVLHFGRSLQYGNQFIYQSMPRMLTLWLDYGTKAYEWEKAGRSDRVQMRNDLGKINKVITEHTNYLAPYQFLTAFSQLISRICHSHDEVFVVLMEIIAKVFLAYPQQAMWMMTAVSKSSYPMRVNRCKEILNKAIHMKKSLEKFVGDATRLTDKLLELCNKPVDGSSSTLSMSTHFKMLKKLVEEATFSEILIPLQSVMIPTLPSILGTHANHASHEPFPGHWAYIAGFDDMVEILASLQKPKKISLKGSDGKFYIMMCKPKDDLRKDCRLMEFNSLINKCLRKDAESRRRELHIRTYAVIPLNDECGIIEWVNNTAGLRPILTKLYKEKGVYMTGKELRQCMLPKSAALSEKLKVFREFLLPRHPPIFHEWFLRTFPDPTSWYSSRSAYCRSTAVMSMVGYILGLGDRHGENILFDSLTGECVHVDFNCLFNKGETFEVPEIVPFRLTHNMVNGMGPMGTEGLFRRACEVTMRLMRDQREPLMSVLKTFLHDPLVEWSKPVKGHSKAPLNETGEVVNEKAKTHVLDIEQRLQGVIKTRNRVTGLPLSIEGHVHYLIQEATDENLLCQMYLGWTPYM

With `C[C@@H]1COCCN1c1cc(C2([S@](C)(=N)=O)CC2)nc(-c2cc[nH]c3nccc2-3)n1` [AZD6738], the “ATm + SEM (° C.)” value at TAF1-2 was 3.4 ± 0.1 °C.
On to `C=CCCn1cc(-c2cc(C(=O)N3CCOCC3)cc3c2ncn3C)c2cc[nH]c2c1=O` [GNE-371, reference compound], for which the “inhibition of ATR (phosphorylation of p53 S15)” value on purified FLAG-ATR is reported as “absence of inhibition”.
For the compound `C=CCCn1cc(-c2cc(C3([S@](C)(=N)=O)CC3)nc(-c3ccnc4[nH]ccc34)n2)c2cc[nH]c2c1=O` [ZS1-681], in test [1], the “p53-mediated p21 expression” value is reported as “induces p53-mediated p21 expression”. Also, the “inhibition of ATR (phosphorylation of p53 S15)” value against purified FLAG-ATR was “does not inhibit ATR; also recorded: absence of inhibition”.
